Experimental data reported in ChEMBL document CHEMBL1139623, “4,5-Disubstituted cis-pyrrolidinones as inhibitors of type II 17beta-hydroxysteroid dehydrogenase. Part 2. SAR” (Bioorg Med Chem Lett, 2005).

Biological target: T1, 17-beta-hydroxysteroid dehydrogenase type 2 (Homo sapiens, UniProt P37059)
T1 sequence (P37059 whole entry): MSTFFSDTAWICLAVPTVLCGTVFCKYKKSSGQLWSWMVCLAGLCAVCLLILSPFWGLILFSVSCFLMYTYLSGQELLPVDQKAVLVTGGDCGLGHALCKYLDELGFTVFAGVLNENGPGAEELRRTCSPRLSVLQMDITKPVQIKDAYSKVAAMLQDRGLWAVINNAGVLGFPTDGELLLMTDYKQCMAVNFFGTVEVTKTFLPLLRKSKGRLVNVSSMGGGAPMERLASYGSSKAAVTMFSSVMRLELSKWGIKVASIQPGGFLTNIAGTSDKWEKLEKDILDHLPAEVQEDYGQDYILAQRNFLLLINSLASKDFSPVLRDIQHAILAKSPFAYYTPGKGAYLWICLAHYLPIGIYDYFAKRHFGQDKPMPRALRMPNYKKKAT
Experiment: Inhibitory concentration against 17 beta hydroxysteroid dehydrogenase type 2 (type II 17-beta-HSD II)

| IC50 [nM] | Structure (SMILES) |
| --- | --- |
| > 10000 | CN1C(=O)C[C@H](c2ccccc2)[C@@H]1[C@@H](O)c1cc2ccccc2[nH]1 |
| 960 | CN1C(=O)C[C@H](c2ccccc2)[C@@H]1[C@@H](O)c1ccc2c(c1)OCO2 |
| 1200 | CN1C(=O)C[C@H](c2ccccc2)[C@@H]1[C@@H](O)c1ccc(Br)s1 |
| 420 | CN1C(=O)C[C@H](c2ccccc2)[C@@H]1[C@@H](O)c1cccc(-c2ccccc2)c1 |
| 590 | CN1C(=O)C[C@H](c2ccccc2)[C@@H]1[C@@H](O)c1cc2ccccc2s1 |
| 430 | CN1C(=O)C[C@H](c2ccccc2)[C@@H]1[C@@H](O)C#Cc1ccccc1 |
| 1650 | CN(C)c1ccc([C@H](O)[C@H]2[C@@H](c3ccccc3)CC(=O)N2C)cc1 |
| 300 | CN1C(=O)C[C@H](c2ccccc2)[C@@H]1[C@@H](O)C#Cc1ccccc1Cl |
| 3240 | CN1C(=O)C[C@H](c2ccccc2)[C@@H]1[C@@H](O)c1ccc(-c2ccccc2)o1 |
| 440 | CN1C(=O)C[C@H](c2ccccc2)[C@@H]1[C@@H](O)c1ccc(Cl)c(Cl)c1 |
| 320 | CN1C(=O)C[C@H](c2ccccc2)[C@@H]1[C@@H](O)C#Cc1ccccc1F |
| 1820 | Cc1ccc([C@H](O)[C@H]2[C@@H](c3ccccc3)CC(=O)N2C)cc1 |
| 1520 | Cc1cccc([C@H](O)[C@H]2[C@@H](c3ccccc3)CC(=O)N2C)c1 |
| 2660 | CN1C(=O)C[C@H](c2ccccc2)[C@@H]1[C@@H](O)c1csc2ccccc12 |
| 1830 | CN1C(=O)C[C@H](c2ccccc2)[C@@H]1[C@@H](O)CCc1ccccc1 |
| 100 | CN1C(=O)C[C@H](c2ccccc2)[C@@H]1[C@@H](O)c1ccc(-c2ccccc2)s1 |
| 2390 | CN1C(=O)C[C@H](c2ccccc2)[C@@H]1[C@@H](O)Cc1cccc(Cl)c1 |

| IC50 [nM] | Structure (SMILES) |
| --- | --- |
| 400 | CN1C(=O)C[C@H](c2ccccc2)[C@@H]1[C@@H](O)c1cccs1 |
| 3180 | CN1C(=O)C[C@H](c2ccccc2)[C@@H]1[C@@H](O)c1ccco1 |
| > 10000 | CN1C(=O)C[C@H](c2ccccc2)[C@@H]1[C@H](O)c1cccc(Cl)c1 |
| 5000 | CN1C(=O)C[C@H](c2ccccc2)[C@@H]1[C@@H](O)c1ccccc1 |
| 1230 | COc1ccc([C@H](O)[C@H]2[C@@H](c3ccccc3)CC(=O)N2C)cc1 |
| 560 | Cc1ccc([C@H](O)[C@H]2[C@@H](c3ccccc3)CC(=O)N2C)s1 |
| 1160 | CN1C(=O)C[C@H](c2ccccc2)[C@@H]1[C@@H](O)c1coc2ccccc12 |
| 810 | COc1cccc([C@H](O)[C@H]2[C@@H](c3ccccc3)CC(=O)N2C)c1 |
| 2780 | CN1C(=O)C[C@H](c2ccccc2)[C@@H]1[C@@H](O)c1cccc(-c2ccc(F)cc2)c1 |
| 880 | CN1C(=O)C[C@H](c2ccccc2)[C@@H]1[C@@H](O)c1cccc(C(F)(F)F)c1 |
| 370 | CN1C(=O)C[C@H](c2ccccc2)[C@@H]1[C@@H](O)C#Cc1cccc(N)c1 |
| 1020 | CN1C(=O)C[C@H](c2ccccc2)[C@@H]1[C@@H](O)c1ccc(-c2ccccc2)cc1 |
| 1960 | CN1C(=O)C[C@H](c2ccccc2)[C@@H]1[C@@H](O)c1ccc(Cl)cc1 |
| 1270 | CN1C(=O)C[C@H](c2ccccc2)[C@@H]1[C@@H](O)c1ccc(Br)o1 |
| 1760 | CN1C(=O)C[C@H](c2ccccc2)[C@@H]1[C@@H](O)C#Cc1cccc(O)c1 |
| 700 | CN1C(=O)C[C@H](c2ccccc2)[C@@H]1[C@@H](O)c1cccc(Cl)c1 |

The next lines start with the compound.

| Structure (SMILES) | IC50 [nM] |
| --- | --- |
| CNc1ccc([C@H]2CC(=O)N(C)[C@H]2[C@@H](O)c2ccc(-c3ccccc3)s2)cc1 | 1670 |
| CN1C(=O)C[C@H](c2ccccc2)[C@@H]1Cc1cccc(Cl)c1 | 2180 |
| CN1C(=O)C[C@H](c2ccccc2)[C@@H]1[C@@H](O)/C=C/c1ccc(F)cc1 | 1400 |
| CN1C(=O)C[C@H](c2ccccc2)[C@@H]1[C@@H](O)C#Cc1ccc(F)cc1 | 480 |
| CN1C(=O)C[C@H](c2ccc(NS(C)(=O)=O)cc2)[C@@H]1[C@@H](O)c1ccc(-c2ccccc2)s1 | > 10000 |
| Cc1ccc(C#C[C@H](O)[C@H]2[C@@H](c3ccccc3)CC(=O)N2C)cc1 | 800 |
| CO[C@@H](c1cccs1)[C@H]1[C@@H](c2ccccc2)CC(=O)N1C | 3910 |
| COc1ccc([C@H]2CC(=O)N(C)[C@H]2[C@@H](O)c2ccc(-c3ccccc3)s2)cc1 | 890 |
| CN1C(=O)C[C@H](c2ccccc2)[C@@H]1[C@@H](OCCO)c1cccs1 | > 10000 |
| O=C1C[C@H](c2ccccc2)[C@H]([C@@H](O)c2cccs2)N1Cc1ccccc1 | 4180 |
| CN1C(=O)C[C@H](c2ccccc2)[C@@H]1[C@@H](O)C(C)(C)C | > 10000 |
| CC(=O)O[C@@H](c1cccs1)[C@H]1[C@@H](c2ccccc2)CC(=O)N1C | 1370 |
| CN1C(=O)C[C@H](c2ccc([N+](=O)[O-])cc2)[C@@H]1[C@@H](O)c1ccc(-c2ccccc2)s1 | > 10000 |
| CN1C(=O)C[C@H](c2ccccc2)[C@@H]1[C@@H](O)CCc1ccc(F)cc1 | 1530 |
| CN1C(=O)C[C@H](c2ccc(O)cc2)[C@@H]1[C@@H](O)c1ccc(-c2ccccc2)s1 | 220 |
| CN1C(=O)C[C@H](c2ccccc2)[C@@H]1[C@@H](O)c1ccc(-c2ccc(F)cc2)cc1 | 1260 |
| CN1C(=S)C[C@H](c2ccccc2)[C@@H]1[C@@H](O)c1cccs1 | > 10000 |
| CN1C(=O)C[C@H](c2ccccc2)[C@@H]1C(F)c1cccs1 (some centres not stated) | 2980 |
| CC(=O)Nc1ccc([C@H]2CC(=O)N(C)[C@H]2[C@@H](O)c2ccc(-c3ccccc3)s2)cc1 | > 10000 |
| CN1C(=O)C[C@H](c2ccccc2)[C@@H]1C(=O)c1cccs1 | > 10000 |
| CN1CC[C@H](c2ccccc2)[C@@H]1[C@@H](O)c1cccs1 | > 10000 |
| CN1C(=O)C[C@H](c2ccccc2)[C@@H]1[C@@H](O)C#Cc1ccccn1 | 1500 |
| O=C1C[C@H](c2ccccc2)[C@H]([C@@H](O)c2cccs2)N1 | > 10000 |
| CN(C)c1ccc([C@H]2CC(=O)N(C)[C@H]2[C@@H](O)c2ccc(-c3ccccc3)s2)cc1 | 2430 |
| CN1C(=O)C[C@H](c2ccccc2)[C@@H]1C(=O)c1cccc(Cl)c1 | > 10000 |
| CO[C@@H](c1cccc(Cl)c1)[C@H]1[C@@H](c2ccccc2)CC(=O)N1C | 900 |
| COc1cccc(C#C[C@H](O)[C@H]2[C@@H](c3ccccc3)CC(=O)N2C)c1 | 1090 |
| CN1C(=O)C[C@H](c2ccc(N)cc2)[C@@H]1[C@@H](O)c1ccc(-c2ccccc2)s1 | 190 |
| CN1C(=O)C[C@H](c2ccccc2)[C@@H]1[C@@H](O)c1ccc(-c2ccc(O)cc2)cc1 | 1130 |
